29 compounds from patent US8357703B2, “Pyridines” (Hoffmann-La Roche Inc., priority 2009, dated 2013) can be followed below.

The assay concerns the target T1, human GABA A α5β3γ2 receptor (Homo sapiens, UniProt P18507+P31644).
T1 construct: expressed in transfected cells; host or cells: HEK293 (transiently transfected), membranes
The experiment in a line: [3H]flumazenil competition binding to HEK293 cells expressing human GABA A receptors. To be noted: competition for [3H]flumazenil (0.5 nM for α5); HEK293 cells expressing human (transiently transfected) receptors; means of two determinations; read-out: hKi GABA Aα5. Here is the method: The affinity of compounds at GABA A receptor subtypes was measured by competition for [^3H]flumazenil (85 Ci/mmol; Roche) binding to HEK293 cells expressing rat (stably transfected) or human (transiently transfected) receptors of composition α1β3γ2, α2β3γ2, α3β3γ2 and α5β3γ2.
Cell pellets were suspended in Krebs-tris buffer (4.8 mM KCl, 1.2 mM CaCl2, 1.2 mM MgCl2, 120 mM NaCl, 15 mM Tris; pH 7.5; binding assay buffer), homogenized by polytron for ca. 20 sec on ice and centrifuged for 60 min at 4° C. (50000 g; Sorvall, rotor: SM24=20000 rpm). The cell pellets were resuspended in Krebs-tris buffer and homogenized by polytron for ca. 15 sec on ice. Protein was measured (Bradford method, Bio-Rad) and aliquots of 1 mL were prepared and stored at −80° C.
Radioligand binding assays were carried out in a volume of […] (96-well plates) which contained […] of cell membranes, [^3H]flumazenil at a concentration of 1 nM for α1, α2, α3 subunits and 0.5 nM for α5 subunits and the test compound in the range of […]. Nonspecific binding was defined by 10^−5 M diazepam and typically represented less than 5% of the total binding. Assays were incubated to equilibrium for 1 hour at 4° C. and harvested onto GF/C uni-filters (Packard) by filtration using a Packard harvester and washing with ice-cold wash buffer (50 mM Tris; pH 7.5). After drying, filter-retained radioactivity was detected by liquid scintillation counting. Ki values were calculated using Excel-Fit (Microsoft) and are the means of two determinations.
Representative test results, obtained by the above described assay measuring binding affinity to HEK293 cells expressing human (h) receptors, are shown in table 1 below.

For `Cc1onc(N2CCCC2)c1COc1ccc(C(=O)NC2CCOCC2)cn1` [Example 41, 6-((5-methyl-3-pyrrolidin-1-yl-isoxazol-4-yl)methoxy)-N-(tetrahydro-pyran-4-yl)-nicotinamide], the Ki is 3.9 nM.

As for `Cc1onc(CCC(F)(F)F)c1COc1ccc(C(=O)NC2CCOCC2)cn1` [Example 4, 6-[(5-Methyl-3-(3,3,3-trifluoro-propyl)-isoxazol-4-yl)methoxy]-N-(tetrahydro-pyran-4-yl)-nicotinamide], the Ki is 39.9 nM.

`CCCc1noc(C)c1COc1ccc(C(=O)NC2CCOCC2)cn1` [Example 2, 6-((5-Methyl-3-propyl-isoxazol-4-yl)methoxy)-N-(tetrahydro-pyran-4-yl)-nicotinamide]: the Ki worked out at 50.8 nM.

Regarding `CCCCc1noc(C)c1COc1ccc(C(=O)Nc2cnn(C)c2)cn1` [Example 23, 6-((3-Butyl-5-methyl-isoxazol-4-yl)methoxy)-N-(1-methyl-1H-pyrazol-4-yl)-nicotinamide], the Ki was determined as 2.2 nM.

On to `Cc1onc(CCC(F)(F)F)c1COc1ccc(C(=O)NC(C)C)cn1` [Example 3, N-Isopropyl-6-[(5-methyl-3-(3,3,3-trifluoro-propyl)-isoxazol-4-yl)methoxy]-nicotinamide], for which the Ki stood at 49 nM.

As to `CCCCc1noc(C)c1COc1ccc(C(=O)N2CCS(=O)(=O)CC2)cn1` [Example 18, [6-((3-Butyl-5-methyl-isoxazol-4-yl)methoxy)-pyridin-3-yl]-(1,1-dioxo-1,6-thiomorpholin-4-yl)-methanone], the Ki was 21.1 nM.

As to `CCCCc1noc(C)c1COc1ccc(C(=O)NC(CO)CO)cn1` [Example 15, 6-((3-Butyl-5-methyl-isoxazol-4-yl)methoxy)-N-(2-hydroxy-1-hydroxymethyl-ethyl)-nicotinamide], the Ki was 5.7 nM.

As for `Cc1onc(C2CCCC2)c1COc1ccc(C(=O)NC(C)C)cn1` [Example 30, 6-((3-Cyclopentyl-5-methyl-isoxazol-4-yl)methoxy)-N-isopropyl-nicotinamide], the Ki came to 37.6 nM.

As to `Cc1onc(C2CCCCC2)c1COc1ccc(C(=O)NC2CCOCC2)cn1` [Example 33, 6-((3-Cyclohexyl-5-methyl-isoxazol-4-yl)methoxy)-N-(tetrahydro-pyran-4-yl)-nicotinamide], the Ki worked out at 5.2 nM.

With `Cc1onc(C2CCCCC2)c1COc1ccc(C(=O)NC2CC2)cn1` [Example 32, 6-((3-Cyclohexyl-5-methyl-isoxazol-4-yl)methoxy)-N-cyclopropyl-nicotinamide], the Ki came to 4.7 nM.

On to `CCCCc1noc(C)c1COc1ccc(C(=O)NC2CCOC2)cn1` (centres unmarked) [Example 14, 6-((3-Butyl-5-methyl-isoxazol-4-yl)methoxy)-N-(tetrahydro-furan-3-yl)-nicotinamide], for which the Ki turned out to be 5 nM.

In the case of `CCCCc1noc(C)c1COc1ccc(C(=O)NC(C)(C)CO)cn1` [Example 8, 6-((3-Butyl-5-methyl-isoxazol-4-yl)methoxy)-N-(2-hydroxy-1,1-dimethyl-ethyl)-nicotinamide], the Ki worked out at 15.2 nM.

In the case of `CCCCc1noc(C)c1COc1ccc(C(=O)NC(C)CO)cn1` (racemic) [Example 9, Rac-6-((3-Butyl-5-methyl-isoxazol-4-yl)methoxy)-N-(2-hydroxy-1-methyl-ethyl)-nicotinamide], the Ki was 3.1 nM.

In the case of `CCCCc1noc(C)c1CNc1ccc(C(=O)NC(C)CO)cn1` (centres unmarked) [Example 43, 6-[((3-Butyl-5-methyl-isoxazol-4-yl)methyl)-amino]-N-(2-hydroxy-1-methyl-ethyl)-nicotinamide], the Ki was determined as 77 nM.

Turning to `CCCCc1noc(C)c1COc1ccc(C(=O)NC(C)CO)cn1` (single isomer, unassigned; (+)) [Example 11, (+)-6-((3-Butyl-5-methyl-isoxazol-4-yl)methoxy)-N-(2-hydroxy-1-methyl-ethyl)-nicotinamide], the Ki came to 7.3 nM.

Consider `CCCCc1noc(C)c1COc1ccc(C(=O)N[C@@H](C)C(F)(F)F)cn1` [Example 19, 6-((3-Butyl-5-methyl-isoxazol-4-yl)methoxy)-N—((S)-2,2,2-trifluoro-1-methyl-ethyl)-nicotinamide], for which the Ki came out at 8.4 nM.

As for `CCCCc1nocc1COc1ccc(C(=O)NC(C)C)cn1` [Example 25, 6-((3-Butyl-isoxazol-4-yl)methoxy)-N-isopropyl-nicotinamide], the Ki is 41.1 nM.

Turning to `Cc1onc(C2CCCCC2)c1COc1ccc(C(=O)NC(C)(C)CO)cn1` [Example 35, 6-((3-Cyclohexyl-5-methyl-isoxazol-4-yl)methoxy)-N-(2-hydroxy-1,1-dimethyl-ethyl)-nicotinamide], the Ki is 20.3 nM.

In the case of `CCCCc1nocc1COc1ccc(C(=O)NC2CCOCC2)cn1` [Example 27, 6-((3-Butyl-isoxazol-4-yl)methoxy)-N-(tetrahydro-pyran-4-yl)-nicotinamide], the Ki was found to be 51.9 nM.

For `CCCCc1noc(C)c1COc1ccc(C(=O)Nc2ccn(C)n2)cn1` [Example 24, 6-((3-Butyl-5-methyl-isoxazol-4-yl)methoxy)-N-(1-methyl-1H-pyrazol-3-yl)-nicotinamide], the Ki worked out at 10.7 nM.

Turning to `CCCCc1noc(C)c1COc1ccc(C(=O)NC2CCOCC2)cn1` [Example 7, 6-((3-Butyl-5-methyl-isoxazol-4-yl)methoxy)-N-(tetrahydro-pyran-4-yl)-nicotinamide], the Ki came out at 5.2 nM.

For the compound `CCCCc1noc(C)c1COc1ccc(C(=O)NCC(C)O)cn1` (centres unmarked) [Example 17, 6-((3-Butyl-5-methyl-isoxazol-4-yl)methoxy)-N-(2-hydroxy-propyl)-nicotinamide], the Ki is 5.2 nM.

For the compound `CCCCc1noc(C)c1COc1ccc(C(=O)NC2CC2)cn1` [Example 6, 6-((3-Butyl-5-methyl-isoxazol-4-yl)methoxy)-N-cyclopropyl-nicotinamide], the Ki is 6.5 nM.

Turning to `Cc1onc(C2CCCCC2)c1COc1ccc(C(=O)NC(C)C)cn1` [Example 31, 6-((3-Cyclohexyl-5-methyl-isoxazol-4-yl)methoxy)-N-isopropyl-nicotinamide], the Ki is 4.3 nM.

Regarding `CCCC(C)c1noc(C)c1COc1ccc(C(=O)NC(C)C)cn1` (centres unmarked) [Example 29, N-Isopropyl-6-[(5-methyl-3-(1-methyl-butyl)-isoxazol-4-yl)methoxyl]-nicotinamide], the Ki was 70.9 nM.

`CCCCc1noc(C)c1CNc1ccc(C(=O)NC2CCOCC2)cn1` [Example 44, 6-[((3-Butyl-5-methyl-isoxazol-4-yl)methyl)-amino]-N-(tetrahydro-pyran-4-yl)-nicotinamide]: the Ki stood at 67.6 nM.

With `CCCc1noc(C)c1COc1ccc(C(=O)NC(C)C)cn1` [Example 1, N-Isopropyl-6-((5-methyl-3-propyl-isoxazol-4-yl)methoxy)-nicotinamide], the Ki came out at 46 nM.

Turning to `Cc1onc(N2CCCC2)c1COc1ccc(C(=O)NC(C)C)cn1` [Example 40, N-Isopropyl-6-((5-methyl-3-pyrrolidin-1-yl-isoxazol-4-yl)methoxy)-nicotinamide], the Ki stood at 4 nM.

As for `CCCCc1noc(C)c1COc1ccc(C(=O)N2CCC2)cn1` [Example 22, Azetidin-1-yl-[6-((3-butyl-5-methyl-isoxazol-4-yl)methoxy)-pyridin-3-yl]-methanone], the Ki turned out to be 34.5 nM.
